According to US20240308995A1, “O-GLYCOPROTEIN-2-ACETAMIDO-2-DEOXY-3-D-GLUCOPYRANOSIDASE INHIBITORS” (BIOGEN MA INC., priority 2018, published 2024):
Read-outs that look alike come from different tables or passages of the source. Marks after values point to notes of the source that are not given here.

Tests used:
[1] = biological target: Recombinant full length human OGA enzyme (Homo sapiens (Human), UniProt O60502); experiment: OGA Enzyme Inhibition Biochemical Assay; settings: 1 nM OGA, 100 μM 4-MUGlcNAc, pH 6.4
Sequence of Recombinant full length human OGA enzyme (O60502 whole entry): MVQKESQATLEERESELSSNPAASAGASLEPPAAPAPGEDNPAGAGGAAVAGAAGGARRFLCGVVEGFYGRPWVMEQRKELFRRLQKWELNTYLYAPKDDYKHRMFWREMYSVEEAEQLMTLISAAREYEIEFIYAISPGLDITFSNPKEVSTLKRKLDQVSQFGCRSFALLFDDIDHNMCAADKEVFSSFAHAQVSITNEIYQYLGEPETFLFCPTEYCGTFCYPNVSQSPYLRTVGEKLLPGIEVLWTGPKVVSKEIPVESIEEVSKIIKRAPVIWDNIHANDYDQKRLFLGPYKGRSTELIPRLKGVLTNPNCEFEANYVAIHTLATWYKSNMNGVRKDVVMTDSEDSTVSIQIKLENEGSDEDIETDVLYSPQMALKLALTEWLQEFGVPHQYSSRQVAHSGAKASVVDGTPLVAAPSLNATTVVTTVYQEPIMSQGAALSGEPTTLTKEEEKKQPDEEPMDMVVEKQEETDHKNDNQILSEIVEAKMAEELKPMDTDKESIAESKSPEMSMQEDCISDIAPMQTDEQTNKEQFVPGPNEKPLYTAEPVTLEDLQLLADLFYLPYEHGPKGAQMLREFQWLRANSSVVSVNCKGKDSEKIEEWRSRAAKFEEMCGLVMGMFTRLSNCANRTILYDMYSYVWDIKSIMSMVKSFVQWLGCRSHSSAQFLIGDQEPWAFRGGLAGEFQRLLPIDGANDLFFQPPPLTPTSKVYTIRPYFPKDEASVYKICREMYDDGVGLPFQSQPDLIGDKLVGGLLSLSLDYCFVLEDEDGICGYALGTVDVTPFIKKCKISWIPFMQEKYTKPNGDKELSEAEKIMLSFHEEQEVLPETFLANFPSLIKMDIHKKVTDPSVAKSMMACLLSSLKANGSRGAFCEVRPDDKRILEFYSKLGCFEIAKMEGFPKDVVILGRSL
Description: Recombinant full length human OGA enzyme was purchased from Origene. 4-MUGlcNAc substrate was purchased from Sigma. All other reagents were purchased from Sigma or Fisher. Assay buffer consists of the McIlvaine buffer system, pH 6.4 (0.2M Na2HPO4 mixed with 0.1M citric acid) and 0.01% BSA. […] Reactions were incubated for 90 minutes at room temperature and quenched with 40 μl of 3M glycine, pH 10 and read on a Perkin Elmer Envision plate reader (Ex: 355 nm/Em: 460 nm). Compounds were tested with a 10-point dose-response starting from 20 μM with a 4-fold dilution. Data was fit using GraphPad Prism using a 4-parameter fit with variable slope.

[2] = biological target: OGA (S400 O-GLCNAC), HEK-293T cells transfected with Tau-V5 (Homo sapiens (Human), UniProt O60502); experiment: Cellular OGA-Tau MSD Assay; type: cell-based
Sequence of OGA (S400 O-GLCNAC), HEK-293T cells transfected with Tau-V5 (O60502 whole entry): as above
Description: HEK-293T cells were transfected with […] and Tau-V5 plasmids using Lipofectamine and grown overnight. Next day, the cells were collected and re-plated at 1×10^5 cells per well in 96 well plates. Cells were incubated for 4 hr at 37° C., before compounds were added at 1 uM, with 3-fold dilutions in a 10-point titration. Cell plates were incubated with compounds overnight at 37° C. The next day media was removed from wells by gentle aspiration and 120 ul of 1× Cell Lysis buffer mixed with protease and phosphatase cocktail added to each well. A freeze thaw was performed at -80° C., then mixed before transferring 50 ul to MSD plates coated with V5-tag antibody to capture Tau. MSD Plates were incubated overnight at 4° C., on a plate shaker. The following day, plates were washed and incubated with Tau-[…]-GlcNAc antibody for 2 hr and then developed with rabbit Sulfo-tag antibody. Final read out was carried out on an MSD 600 reader. The data was analyzed using Graph Pad or Genedata, the data was normalized and % activity versus log of compound concentration was plotted. The IC50 values were obtained from a 4 parameter fit.

[3] = tested on: P-gp (MDR1); experiment: MDR1-MDCK Efflux Ratio Assay; type: in vitro ADME; settings: dog, read-out: MDR1-MDCK Efflux Ratio (B-A/A-B)
Description: MDR1-MDCK cell monolayers were grown to confluence on microporous polyester membranes in 96-well Corning insert plates. The permeability assay buffer was Hanks' Balanced Salt Solution containing 10 mM HEPES at pH of 7.4. Loperamide (1 μM) was used as a positive control P-gp substrate. Propranolol and Bestatin (1 μM) were used as high and low permeability comparators, respectively. Test compounds or positive control P-gp substrate/permeability comprators were added to respective apical and basolateral chambers for bidirectional assessment of permeability. Receiver buffer (transport buffer supplemented with 1% bovine serum albumin) was added to respective receiver chambers. MDR1-MDCK cells were incubated with test compounds at 37° C. with 5% CO2 for 2 hr. Samples were collected from the donor chamber at both 0 and 120 minutes, and from the receiver chamber at 120 minutes. Test and control compound concentrations were determined using LC-MS/MS analysis. Each determination was performed in triplicate. The apparent permeability (Papp), efflux ratio and mass balance (percent recovery) were calculated as follows: [formula] where: dCr/dt is the cumulative concentration in the receiver compartment versus time in μM s^−1 Vr is the volume of the receiver compartment in cm^3 Vd is the volume of the donor compartment in cm^3 A is the area of the insert (0.143 cm^2 for 96-well insert) CE is the estimated experimental concentration (Time=0) of the dosing solution Cr^final is the concentration of the receiver at the end of the incubation period Cd^final is the concentration of the donor at the end of the incubation period.

[4] = Rat Liver Microsome Stability Assay; type: in vitro ADME
[5] = HEK-293T cells, Tau-S400-GlcNAc MSD readout
[6] = MDCK-MDR1, pH 7.4, MDR1-MDCK cells, 2 hr, pH 7.4
[7] = rat liver microsomes, 1 uM compound
[8] = MDCK-MDR1, pH 7.4, repeated assay, value marked with asterisk (*)
[9] = repeated assay, value marked with asterisk (*)

SMILES | IC50 [1] [nM] | IC50 [2, 5] [nM] | efflux ratio at 2 h [3, 6] | RLM % Qh (%) [4, 7] [%] | efflux ratio at 2 h [3, 8] | IC50 [2, 9] [nM] | RLM % Qh (%) [4, 9]
CC(=O)Nc1nc(F)c(CN2C[C@H](Oc3cc(C)nc(C)c3)C[C@H]2C)s1 (stereo in doubt) [Example 1-51, N-(5-(((2R,4R)-4-((2,6-dimethylpyridin-4-yl)oxy)-2-methylpyrrololidin-1-yl)methyl)-4-fluorothiazol-2-yl)acetamide] | 2 | 24 | 23.3 | 51 |  |  | 
CC(=O)Nc1ncc(CN2CCC[C@H](Oc3ccc(F)cn3)C2)s1 [Example 1-2, (S)—N-(5-((3-((5-fluoropyridin-2-yl)oxy)piperidin-1-yl)methyl)thiazol-2-yl)acetamide] | 210 | 35 | 2.3 | 86 | 2.1 |  | 
CC(=O)Nc1ncc(CN2CCC[C@@H](Oc3ccc(F)cn3)C2)s1 [Example 1-3, (R)—N-(5-((3-((5-fluoropyridin-2-yl)oxy)piperidin-1-yl)methyl)thiazol-2-yl)acetamide] | 140 | 38 | 2.3 | 82 | 2.2 |  | 
CC(=O)Nc1ncc(CN2CC[C@@H](Oc3ccc(F)cn3)C2)s1 [Example 1-6, (R)—N-(5-((3-((5-fluoropyridin-2-yl)oxy)pyrrolidin-1-yl)methyl)thiazol-2-yl)acetamide] | 80 | 37 | 1.7 | 40 |  |  | 
CC(=O)Nc1ncc(CN2C[C@@H](Oc3ccc(F)cn3)C[C@H]2C)s1 [Example 1-8, N-(5-(((2R,4S)-4-((5-fluoropyridin-2-yl)oxy)-2-methylpyrrolidin-1-yl)methyl)thiazol-2-yl)acetamide] | 460 | > 1000 | 2.3 | 76 |  |  | 
CC(=O)Nc1ncc(CN2C[C@@H](Oc3ccc(F)cn3)C[C@@H]2C)s1 [Example 1-9, N-(5-(((2S,4S)-4-((5-fluoropyridin-2-yl)oxy)-2-methylpyrrolidin-1-yl)methyl)thiazol-2-yl)acetamide] | 39 | 32 | 1.9 | 87 |  |  | 
CC(=O)Nc1ncc(CN2C[C@H](Oc3ccc(F)cn3)C[C@H]2C)s1 [Example 1-10, N-(5-(((2R,4R)-4-((5-fluoropyridin-2-yl)oxy)-2-methylpyrrolidin-1-yl)methyl)thiazol-2-yl)acetamide] | 28 | 115 | 1.9 | 76 |  |  | 
CC(=O)Nc1ncc(CN2C[C@H](Oc3ccc(C(F)F)cn3)C[C@@H]2C)s1 [Example 1-13, N-(5-(((2S,4R)-4-((5-(difluoromethyl)pyridin-2-yl)oxy)-2-methylpyrrolidin-1-yl)methyl)thiazol-2-yl)acetamide] | 1.1 | 2 | 2.4 | 90 |  |  | 
CC(=O)Nc1ncc(CN2C[C@H](Oc3ccccn3)C[C@@H]2C)s1 [Example 1-14, N-(5-(((2S,4R)-2-methyl-4-(pyridin-2-yloxy)pyrrolidin-1-yl)methyl)thiazol-2-yl)acetamide] | 1.3 | 5 | 2.9 | 68 |  |  | 
CC(=O)Nc1ncc(CN2C[C@H](Oc3cc(C(F)F)ncn3)C[C@@H]2C)s1 [Example 1-18, N-(5-(((2S,4R)-4-((6-(difluoromethyl)pyrimidin-4-yl)oxy)-2-methylpyrrolidin-1-yl)methyl)thiazol-2-yl)acetamide] | 2.4 | 12 | 11.7 | 48 |  |  | 
COCCOc1cc(O[C@@H]2C[C@H](C)N(Cc3sc(NC(C)=O)nc3F)C2)ncn1 [Example 1-23, N-(4-fluoro-5-(((2S,4R)-4-((6-(2-methoxyethoxy)pyrimidin-4-yl)oxy)-2-methylpyrrolidin-1-yl)methyl)thiazol-2-yl)acetamide] | < 1 | 3 | 7.7 | 31 |  |  | 

Other lines, results leading:

IC50 [1] [nM] | IC50 [2, 5] [nM] | efflux ratio at 2 h [3, 6] | RLM % Qh (%) [4, 7] [%] | efflux ratio at 2 h [3, 8] | IC50 [2, 9] [nM] | RLM % Qh (%) [4, 9] | SMILES
< 1 | 1 | 19.6 | 55 |  |  |  | CC(=O)Nc1ncc(CN2C[C@@H](Oc3ccc(C)nc3)C[C@H]2C)s1 (stereo in doubt) [Example 1-116, N-(5-(((2R,4S)-2-methyl-4-((6-methylpyridin-3-yl)oxy)pyrrolidin-1-yl)methyl)thiazol-2-yl)acetamide]
< 1 | 2 | 4.8 | 31 |  |  |  | COc1cc(O[C@@H]2C[C@H](C)N(Cc3cnc(NC(C)=O)s3)C2)ncn1 [Example 1-1, N-(5-(((2S,4R)-4-((6-methoxypyrimidin-4-yl)oxy)-2-methylpyrrolidin-1-yl)methyl)thiazol-2-yl)acetamide]
< 1 | 3 | 1.1 | 73 | 1.9 |  |  | CC(=O)Nc1ncc(CN2C[C@H](Oc3ccc(F)cn3)C[C@@H]2C)s1 [Example 1-11, N-(5-(((2S,4R)-4-((5-fluoropyridin-2-yl)oxy)-2-methylpyrrolidin-1-yl)methyl)thiazol-2-yl)acetamide]
< 1 | 3 | 10 | 97 | 8.9 | 2 | 98* % | COc1cncc(O[C@@H]2C[C@H](C)N(Cc3cnc(NC(C)=O)s3)C2)n1 [Example 1-12, N-(5-(((2S,4R)-4-((6-methoxypyrazin-2-yl)oxy)-2-methylpyrrolidin-1-yl)methyl)thiazol-2-yl)acetamide]
< 1 | 2 | 2.2 | 95 |  |  |  | CC(=O)Nc1ncc(CN2C[C@H](Oc3ccc(F)c(C)n3)C[C@@H]2C)s1 [Example 1-15, N-(5-(((2S,4R)-4-((5-fluoro-6-methylpyridin-2-yl)oxy)-2-methylpyrrolidin-1-yl)methyl)thiazol-2-yl)acetamide]
< 1 | 1 | 9.7 | 50 |  |  | 51* % | CC(=O)Nc1ncc(CN2C[C@H](Oc3ccc(C#N)cn3)C[C@@H]2C)s1 [Example 1-16, N-(5-(((2S,4R)-4-((5-cyanopyridin-2-yl)oxy)-2-methylpyrrolidin-1-yl)methyl)thiazol-2-yl)acetamide]
< 1 | 2 | 12 | 88 | 12.4 |  |  | CC(=O)Nc1ncc(CN2C[C@H](Oc3cnc(Cl)cc3C)C[C@@H]2C)s1 [Example 1-17, N-(5-(((2S,4R)-4-((6-chloro-4-methylpyridin-3-yl)oxy)-2-methylpyrrolidin-1-yl)methyl)thiazol-2-yl)acetamide]
< 1 |  | 2.9 | 63 | 3 | 7 |  | CC(=O)Nc1ncc(CN2C[C@H](Oc3ccnc(OC(F)F)c3)C[C@@H]2C)s1 [Example 1-20, N-(5-(((2S,4R)-4-((2-(difluoromethoxy)pyridin-4-yl)oxy)-2-methylpyrrolidin-1-yl)methyl)thiazol-2-yl)acetamide]
